Measured values published in PMC3076432 (PLoS ONE, 2011).
Where two headings read alike, the source gives them in different places. Ends that are not written are not given here. Peptide text beside a SMILES is read from it.

What was measured:
F. graminearum hyphae [1] = assay type: cell-based, Fusarium graminearum
Aspergillus flavus = assay type: cell-based
F. graminearum hyphae [2] = assay type: cell-based, Fusarium graminearum; remark: listed apart in the source
[3] = F. graminearum PH-1, SFM without calcium
[4] = PH-1, all concentrations tested
[5] = PH-1 conidia, microscopic observation after overnight (16 hours) incubation

Compound: NCC(=O)N1CCC[C@H]1C(=O)N[C@@H](CS)C(=O)N[C@@H](Cc1ccccc1)C(=O)N[C@@H](CO)C(=O)NCC(=O)N[C@@H](CS)C(=O)O [ALP1] (H-GPCFSGC-OH; N-terminus and C-terminus assumed)
- antifungal activity at 48 µM (in words) (F. graminearum PH-1; PH-1): no antifungal activity
- IC100: amount of protein required to inhibit F. graminearum conidial germination completely (F. graminearum PH-1; [3]): >48 µM
- antifungal activity (in words) (F. graminearum PH-1; [4]): totally inactive

Compound: C[C@H](NC(=O)[C@H](CS)NC(=O)[C@@H]1CCCN1C(=O)CN)C(=O)N[C@@H](CO)C(=O)N[C@@H](CC(=O)O)C(=O)N[C@@H](Cc1c[nH]cn1)C(=O)N[C@@H](CC(N)=O)C(=O)N[C@@H](CS)C(=O)O [ALP4] (H-GPCASDHNC-OH; N-terminus and C-terminus assumed)
- antifungal activity at 48 µM (in words) (F. graminearum PH-1; PH-1): no antifungal activity
- IC100: amount of protein required to inhibit F. graminearum conidial germination completely (F. graminearum PH-1; [3]): >48 µM
- antifungal activity (in words) (F. graminearum PH-1; [4]): totally inactive

Compound: C[C@@H](O)[C@H](NC(=O)[C@H](CS)NC(=O)[C@H](Cc1c[nH]c2ccccc12)NC(=O)[C@H](CS)NC(=O)[C@H](CCCNC(=N)N)NC(=O)[C@H](Cc1ccccc1)NC(=O)[C@H](CC(=O)O)NC(=O)[C@H](CC(=O)O)NC(=O)[C@H](CCCNC(=N)N)NC(=O)[C@H](CS)NC(=O)[C@H](CCCNC(=N)N)NC(=O)CN)C(=O)N[C@@H](CCCCN)C(=O)N[C@@H](CCCNC(=N)N)C(=O)N[C@@H](CS)C(=O)O [GMA1-C] (H-GRCRDDFRCWCTKRC-OH; N-terminus and C-terminus assumed)
- SG uptake at 24 µM relative to that induced by GMA4-C (F. graminearum hyphae [1]; 24 µM): twice
- IC100: amount of protein required to inhibit F. graminearum conidial germination completely (F. graminearum PH-1; [3]): 24 µM
- hyperbranching of fungal hyphae (F. graminearum PH-1; PH-1, microscopy after 16 hours): did not cause hyperbranching
- concentration giving complete inhibition of conidial germination (IC100) (F. graminearum PH-1; PH-1 conidia): 24 µM
- lowest concentration at which antifungal activity / growth inhibition was evident (F. graminearum PH-1; [5]): 6 µM

Compound: N=C(N)NCCC[C@H](NC(=O)[C@H](Cc1ccccc1)NC(=O)[C@H](CC(=O)O)NC(=O)[C@H](CC(=O)O)NC(=O)[C@@H](N)CCCNC(=N)N)C(=O)O [GMA1-L] (H-RDDFR-OH; N-terminus and C-terminus assumed)
- SYTOX Green uptake (in words) (F. graminearum hyphae [1]): failed to induce any uptake
- IC100: amount of protein required to inhibit F. graminearum conidial germination completely (F. graminearum PH-1): >96 µM
- antifungal activity (in words) (F. graminearum PH-1): no antifungal activity
- antifungal activity at 96 µM (in words) (F. graminearum PH-1): inactive
- IC50 (F. graminearum PH-1; PH-1, 36 h): > 96 µM

Compound: N=C(N)NCCC[C@H](NC(=O)CN)C(=O)N[C@@H](CS)C(=O)N[C@@H](CCCNC(=N)N)C(=O)N[C@@H](CC(=O)O)C(=O)N[C@@H](CC(=O)O)C(=O)N[C@@H](Cc1ccccc1)C(=O)N[C@@H](CCCNC(=N)N)C(=O)N[C@@H](CS)C(=O)O [GMA1] (H-GRCRDDFRC-OH; N-terminus and C-terminus assumed)
- antifungal activity at 48 µM (in words) (F. graminearum PH-1; PH-1): no antifungal activity
- antifungal activity at 96 µM (in words) (F. graminearum PH-1; PH-1): failed to show any antifungal activity
- IC100: amount of protein required to inhibit F. graminearum conidial germination completely (F. graminearum PH-1; [3]): >192 µM
- antifungal activity (in words) (F. graminearum PH-1; [4]): inactive

Compound: C[C@@H](O)[C@H](NC(=O)[C@H](CS)NC(=O)[C@H](Cc1ccccc1)NC(=O)[C@H](CS)NC(=O)[C@H](CCCNC(=N)N)NC(=O)[C@H](CCCNC(=N)N)NC(=O)[C@H](CCCNC(=N)N)NC(=O)[C@H](Cc1ccccc1)NC(=O)CNC(=O)[C@H](CCCNC(=N)N)NC(=O)[C@H](CS)NC(=O)[C@H](CCCNC(=N)N)NC(=O)CN)C(=O)N[C@H](C(=O)N[C@@H](Cc1c[nH]cn1)C(=O)N[C@@H](CS)C(=O)O)[C@@H](C)O [GMA4-C] (H-GRCRGFRRRCFCTTHC-OH; N-terminus and C-terminus assumed)
- IC100: amount of protein required to inhibit F. graminearum conidial germination completely (F. graminearum PH-1): 6 µM
- concentration giving complete inhibition of conidial germination (IC100) (F. graminearum PH-1): 6 µM
- lowest concentration at which antifungal activity / growth inhibition was evident (F. graminearum PH-1): 1.5 µM
- fungal growth inhibition at 3 µM (F. graminearum PH-1; PH-1, 16 h, 3 µM): 70±9%
- IC50 (F. graminearum PH-1; PH-1, 36 h): 3 µM

Compound: C[C@H](NC(=O)CNC(=O)[C@@H](N)CCCNC(=N)N)C(=O)N[C@@H](CCCNC(=N)N)C(=O)N[C@@H](CCCNC(=N)N)C(=O)N[C@@H](CCCNC(=N)N)C(=O)O [GMA4-L1] (H-RGARRR-OH; N-terminus and C-terminus assumed)
- SYTOX Green uptake at 24 µM (F. graminearum hyphae [1]; 24 µM): > 100 fluorescence units
- IC100: amount of protein required to inhibit F. graminearum conidial germination completely (F. graminearum PH-1): >96 µM
- growth inhibition at 24 µM, 16 hours (in words) (F. graminearum PH-1): mild growth inhibition
- growth inhibition at 96 µM (F. graminearum PH-1; PH-1, 16 h): 30–40%
- IC50 (F. graminearum PH-1; PH-1, 36 h): > 96 µM

Compound: C[C@H](NC(=O)[C@H](Cc1ccccc1)NC(=O)CNC(=O)[C@@H](N)CCCNC(=N)N)C(=O)N[C@@H](CCCNC(=N)N)C(=O)N[C@@H](CCCNC(=N)N)C(=O)O [GMA4-L2] (H-RGFARR-OH; N-terminus and C-terminus assumed)
- SYTOX Green uptake (in words) (F. graminearum hyphae [1]): failed to induce any uptake
- IC100: amount of protein required to inhibit F. graminearum conidial germination completely (F. graminearum PH-1): >96 µM
- growth inhibition at 24 µM, 16 hours (in words) (F. graminearum PH-1): mild growth inhibition
- growth inhibition at 96 µM (F. graminearum PH-1; PH-1, 16 h): 30–40%
- IC50 (F. graminearum PH-1; PH-1, 36 h): > 96 µM

Compound: N=C(N)NCCC[C@H](NC(=O)[C@H](CCCNC(=N)N)NC(=O)[C@H](CCCNC(=N)N)NC(=O)[C@H](Cc1ccccc1)NC(=O)CNC(=O)[C@@H](N)CCCNC(=N)N)C(=O)O [GMA4-L] (H-RGFRRR-OH)
- fungal growth inhibition at 12 µM (F. graminearum PH-1; PH-1, 16 h, 12 µM): 100%
- IC50 (F. graminearum PH-1; PH-1, 36 h): 4 µM
- fungal growth inhibition at 6 µM (F. graminearum PH-1; PH-1, 36 h, 6 µM): 91±7%

Compound: N=C(N)NCCC[C@H](NC(=O)CN)C(=O)N[C@@H](CS)C(=O)N[C@@H](CCCNC(=N)N)C(=O)NCC(=O)N[C@@H](Cc1ccccc1)C(=O)N[C@@H](CCCNC(=N)N)C(=O)N[C@@H](CCCNC(=N)N)C(=O)N[C@@H](CCCNC(=N)N)C(=O)N[C@@H](CS)C(=O)O [GMA4] (H-GRCRGFRRRC-OH; N-terminus and C-terminus assumed)
- concentration giving complete inhibition of conidial germination (IC100) (F. graminearum PH-1; PH-1 conidia): 12 µM
- lowest concentration at which antifungal activity / growth inhibition was evident (F. graminearum PH-1; [5]): 6 µM

Compound: RTCESQSHKFKGPCASDHNCASVCQTERFSGGRCRGFRRRCFCTTHC (also: bicyclic or more (positions not given here)) [MtDef4]
- SYTOX Green uptake (in words) (F. graminearum hyphae [1]): increased in a concentration dependant manner
- time to start of SG uptake after addition of defensin (F. graminearum hyphae [1]): ≤ 5 min
- maximum SYTOX Green fluorescence at 6 µM, 5 hours (F. graminearum hyphae [1]; 6 µM, 5 hours): 702±10 units
- growth inhibition of A. flavus at 48 µM (Aspergillus flavus): approximately 75%
- hyphal morphology compared with untreated control hyphae (F. graminearum hyphae [2]): no difference
- IC100: amount of protein required to inhibit F. graminearum conidial germination completely (F. graminearum PH-1): 1.5 to 2.5 µM
- concentration giving complete inhibition of conidial germination (IC100) (F. graminearum PH-1): 1.5 µM
- fungal growth inhibition at 1.5 µM (F. graminearum PH-1; 1.5 µM): 100%
- IC50 (F. graminearum PH-1; read-out: IC50: amount of protein required for inhibiting 50% growth of F. graminearum): 0.75 to 1 µM
